In patent publication US4146710A, “Solid cephalosporin salt” (Takeda Chemical Industries, Ltd., priority 1976, dated 1979):
Converted amounts (≈) assume the structure as drawn. Where a name gives a salt, the structure may show the parent alone. Read-outs that look alike come from different tables or passages of the source.

How the values were obtained:
[1] = Storage stability in sealed vial at 50° C. for 4 weeks, % residue; format: physicochemical; conditions: 40320 min
Experimental: One sample each of the following compounds was stored in a sealed vial at 50° C. for 4 weeks.
The sodium salt, zwitter ion, and monohydrochloride of 7β-[2-(2-imino-4-thiazoline-4-yl)acetamido]-3-[1-[2-(N,N-dimethylamino)ethyl]-1H-tetrazol-5-yl]thiomethyl-3-cephem-4-carboxylic acid, as well as the lyophilized powders of said acid dihydrochloride (amorphous powders, Example 4-(2)), the crystals of said acid dihydrochloride (Example 1-(3)) and the non-crystalline powders obtained by drying said dihydrochloride crystals (Example 1-(4)) as obtained in accordance with this invention.
The percent residue figures are as follows.

[2] = system: Bacillus subtilis ATCC 6633; assay: Bioassay by the cylinder method; format: cell-based
Experimental: The bioassay by the cylinder method was carried out using 7β-[2-(2-imino-4-thiazolin-4-yl)acetamido]-3-[1-[2-(N,N-dimethylamino)ethyl]-1H-tetrazol-5-yl]thiomethyl-3-cephem-4-carboxylic acid .2H Cl salt as the standard product against Bacillus subtilis ATCC 6633 as the assay microorganism.
The potency of the anhydrous zwitter ion compound was 1000 mcg/ml. The calculated potency of a sample containing 2 moles of HCl per mole of the zwitter ion compound and none of non-bonding hydrochloric acid, water, residual solvent or other impurity is 878 mcg/ml.

[3] = Stability in storage / shelf-life (statement); format: physicochemical
[4] = system: Proteus morganii IFO 3848; assay: Antibacterial spectrum (agar dilution), MIC; format: cell-based; conditions: Morganella morganii, IFO3848, on anhydrate basis, P. morganii IFO 3848
Excerpt: (§1) The antibacterial potency (in terms of MIC) and toxicity of the contemplated compound (I) on anhydrate basis
(§2) (1) Antibacterial spectrum (agar dilution)

[5] = system: Staphylococcus aureus 1840; assay: Antibacterial spectrum (agar dilution), MIC; format: cell-based; conditions: on anhydrate basis, S. aureus 1840
Excerpt: as §1, §2

[6] = system: Staphylococcus aureus FDA 209 P; assay: Antibacterial spectrum (agar dilution), MIC; format: cell-based; conditions: FDA209, on anhydrate basis, S. aureus FDA 209 P
Excerpt: as §1, §2

Escherichia coli T-7 = assay: Antibacterial spectrum (agar dilution), MIC; format: cell-based; conditions: T7, on anhydrate basis, E. coli T-7
Excerpt: as §1, §2

Klebsiella pneumoniae DT = assay: Antibacterial spectrum (agar dilution), MIC; format: cell-based; conditions: on anhydrate basis, K. pneumoniae DT
Excerpt: as §1, §2

[7] = system: Proteus vulgaris IFO 3988; assay: Antibacterial spectrum (agar dilution), MIC; format: cell-based; conditions: IFO3988, on anhydrate basis, P. vulgaris IFO 3988
Excerpt: as §1, §2

[8] = system: Escherichia coli NIHJ JC-2; assay: Antibacterial spectrum (agar dilution), MIC; format: cell-based; conditions: NIHJJC2, on anhydrate basis, E. coli NIHJ JC-2
Excerpt: as §1, §2

Escherichia coli O-111 = assay: Antibacterial spectrum (agar dilution), MIC; format: cell-based; conditions: O111, on anhydrate basis, E. coli O-111
Excerpt: as §1, §2

[9] = Acute toxicity (mouse, intraperitoneal); conditions: in vivo, ip, 1:1 (by mole) mixture of compound (I) and sodium carbonate, anhydrate basis, read-out: CD50 (the source's name)
Excerpt: as §1
(2) Acute toxicity (mouse, intraperitoneal)
The acute toxicity data relates to a 1:1 (by mole) mixture of contemplated compound (I) and sodium carbonate.

[10] = Water solubility (statement); format: physicochemical
[11] = West German Patent Application Laid Open No. 2461478; cited from earlier work

CN(C)CCn1nnnc1SCC1=C(C(=O)O)N2C(=O)[C@@H](NC(=O)Cc3csc(N)n3)[C@H]2SC1 [Example 1-(3), 7β-[2-(2-imino-4-thiazolin-4-yl)acetamido]-3-[1-[2-(N,N-dimethylamino)ethyl]-1H-tetrazol-5-yl]thiomethyl-3-cephem-4-carboxylic acid]
% Residue [1]: 99%

CN(C)CCn1nnnc1SCC1=C(C(=O)O)N2C(=O)[C@@H](NC(=O)Cc3csc(N)n3)[C@H]2SC1 [Example 1-(4), 7β-[2-(2-imino-4-thiazolin-4-yl)acetamido]-3-[1-[2-(N,N-dimethylamino)ethyl]-1H-tetrazol-5-yl]thiomethyl-3-cephem-4-carboxylic acid]
% Residue [1]: 98%

CN(C)CCn1nnnc1SCC1=C(C(=O)O)N2C(=O)[C@@H](NC(=O)Cc3csc(N)n3)[C@H]2SC1 [Example 4-(2), 7β-[2-(2-imino-4-thiazolin-4-yl)acetamido]-3-[1-[2-(N,N-dimethylamino)ethyl]-1H-tetrazol-5-yl]thiomethyl-3-cephem-4-carboxylic acid]
% Residue [1]: 86%

CN(C)CCn1nnnc1SCC1=C(C(=O)O)N2C(=O)[C@@H](NC(=O)Cc3csc(=N)[nH]3)[C@H]2SC1 [Example 7-(3), 5β-[2-(2-imino-4-thiazolin-4-yl)acetamido]-3-[1-[2-(N,N-dimethylamino)ethyl]-1H-tetrazol-5-yl]thiomethyl-3-cephem-4-carboxylic acid]
Bioassay (potency) [2]: 865 µg/mL

CN(C)CCn1nnnc1SCC1=C(C(=O)O)N2C(=O)[C@@H](NC(=O)Cc3csc(N)n3)[C@H]2SC1 [Monohydrochloride (lyophilizate), 7β-[2-(2-imino-4-thiazoline-4-yl)acetamido]-3-[1-[2-(N,N-dimethylamino)ethyl]-1H-tetrazol-5-yl]thiomethyl-3-cephem-4-carboxylic acid, reference compound]
% Residue [1]: 73%

CN(C)CCn1nnnc1SCC1=C(C(=O)O)N2C(=O)[C@@H](NC(=O)Cc3csc(N)n3)[C@H]2SC1 [Sodium salt (lyophilizate), 7β-[2-(2-imino-4-thiazoline-4-yl)acetamido]-3-[1-[2-(N,N-dimethylamino)ethyl]-1H-tetrazol-5-yl]thiomethyl-3-cephem-4-carboxylic acid, reference compound]
% Residue [1]: 76%

CN(C)CCn1nnnc1SCC1=C(C(=O)O)N2C(=O)[C@@H](NC(=O)Cc3csc(N)n3)[C@H]2SC1 [compound (I)]
stability in storage [3]: highly stable in storage
MIC [4]: 0.39 µg/mL (≈ 0.742 µM)
MIC [5]: 0.78 µg/mL (≈ 1.48 µM)
MIC [6]: 0.39 µg/mL (≈ 0.742 µM)
MIC (Escherichia coli T-7): 1.56 µg/mL (≈ 2.97 µM)
MIC (Klebsiella pneumoniae DT): 0.1 µg/mL (≈ 0.19 µM)
MIC [7]: 1.56 µg/mL (≈ 2.97 µM)
MIC [8]: 0.2 µg/mL (≈ 0.38 µM)
MIC (Escherichia coli O-111): 0.05 µg/mL (≈ 0.0951 µM)
LD50 [9]: ≥ 20000 mg/kg

CN(C)CCn1nnnc1SCC1=C(C(=O)O)N2C(=O)[C@@H](NC(=O)Cc3csc(N)n3)[C@H]2SC1 [compound (II), 7β-[2-(2-imino-4-thiazolin-4-yl)acetamido]-3-[1-[2-(N,N-dimethylamino)ethyl]-1H-tetrazol-5-yl]thiomethyl-3-cephem-4-carboxylic acid, reference compound]
stability on long shelf-life ([3]; free acid form (zwitter ion) or salt with a base): unstable in the free acid form (zwitter ion) or its salt with a base
Bioassay (potency) ([2]; listed as anhydrous zwitter ion compound): 1000 µg/mL
water solubility [10]: high water solubility
antibiotic activity [11]: excellent antibiotic activity
% Residue ([1]; listed as Zwitter ion(lyophilizate)): 54%
